Results taken from patent US11634447B2 (priority 2012, dated 2023).

What follows are compounds tested on bacterial strain LF82 binding to the glycoprotein BSA-(Mannose)3 (assay: Bacterial Binding Assay (BBA)). Conditions: read-out: Bacterial Binding Assay IC50, LF82/Luciferase strain binding to BSA-(Man)3 coated plates, luminescence.
Type: cell-based, Escherichia coli
Summary of the method: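 Inhibition of LF82/luciferase E. coli adhesion is read as luminescence after washing off unbound cells. Compound and bacteria (10^7 per well) are co-incubated 40-75 min at room temperature on wells coated with 0.5-2 μg/mL BSA-(Man)3, with BSA-only wells as background; IC50 values derived.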

Row | SMILES | IC50 [nM]
1 | Cc1cc(-c2cccc(-c3ccc([C@H]4O[C@H](CO)[C@@H](O)[C@H](O)[C@@H]4O)c(C)c3)n2)ccc1[C@H]1O[C@H](CO)[C@@H](O)[C@H](O)[C@@H]1O [Compound 154, (2R,3S,4R,5S,6R)-2-(hydroxymethyl)-6-[2-methyl-4-[6-[3-methyl-4-[(2R,3S,4R,5S,6R)-3,4,5-trihydroxy-6-(hydroxymethyl)tetrahydropyran-2-yl]phenyl]-2-pyridyl]phenyl]tetrahydropyran-3,4,5-triol] | 44
2 | OCC(O)CC1(O)c2cc(C#C[C@H]3O[C@H](CO)[C@@H](O)[C@H](O)[C@@H]3O)ccc2-c2ccc(C#C[C@H]3O[C@H](CO)[C@@H](O)[C@H](O)[C@@H]3O)cc21 (stereo partly drawn) [Compound 196, (2R,3S,4R,5S,6R)-2-[2-[9-(2,3-dihydroxypropyl)-9-hydroxy-7-[2-[(2R,3S,4R,5S,6R)-3,4,5-trihydroxy-6-(hydroxymethyl)tetrahydropyran-2-yl]ethynyl]fluoren-2-yl]ethynyl]-6-(hydroxymethyl)tetrahydropyran-3,4,5-triol] | 28
3 | OC[C@H]1O[C@H](C#Cc2ccc(C#C[C@H]3O[C@H](CO)[C@@H](O)[C@H](O)[C@@H]3O)c(Cc3ccccc3)c2)[C@@H](O)[C@@H](O)[C@@H]1O [Compound 158, (2R,3S,4R,5S,6R)-2-[2-[3-benzyl-4-[2-[(2R,3S,4R,5S,6R)-3,4,5-trihydroxy-6-(hydroxymethyl)tetrahydropyran-2-yl]ethynyl]phenyl]ethynyl]-6-(hydroxymethyl)tetrahydropyran-3,4,5-triol] | 11
4 | CCCCc1cc(C#C[C@H]2O[C@H](CO)[C@@H](O)[C@H](O)[C@@H]2O)ccc1C#C[C@H]1O[C@H](CO)[C@@H](O)[C@H](O)[C@@H]1O [Compound 72] | 18
5 | CC(C)(C)OC(=O)N1CCC(n2c3cc(C#C[C@H]4O[C@H](CO)[C@@H](O)[C@H](O)[C@@H]4O)ccc3c3ccc(C#C[C@H]4O[C@H](CO)[C@@H](O)[C@H](O)[C@@H]4O)cc32)CC1 [Compound 185, tert-butyl 4-[2,7-bis[2-[(2R,3S,4R,5S,6R)-3,4,5-trihydroxy-6-(hydroxymethyl)tetrahydropyran-2-yl]ethynyl]carbazol-9-yl]piperidine-1-carboxylate] | 1.1
6 | CC1(C)c2cc(C#C[C@H]3O[C@H](CO)[C@@H](O)[C@H](O)[C@@H]3O)ccc2-c2ccc(C#C[C@H]3O[C@H](CO)[C@@H](O)[C@H](O)[C@@H]3O)cc21 [Compound 120, (2R,3S,4R,5S,6R)-2-[2-[9,9-dimethyl-7-[2-[(2R,3S,4R,5S,6R)-3,4,5-trihydroxy-6-(hydroxymethyl)tetrahydropyran-2-yl]ethynyl]fluoren-2-yl]ethynyl]-6-(hydroxymethyl)tetrahydropyran-3,4,5-triol] | 1.2
7 | O=C(c1c(C#C[C@H]2O[C@H](CO)[C@@H](O)[C@H](O)[C@@H]2O)ccc2c1C1(CCNCC1)c1cc(C#C[C@H]3O[C@H](CO)[C@@H](O)[C@H](O)[C@@H]3O)ccc1-2)C1CCC1 [Compound 226, [2,7-bis[2-[(2R,3S,4R,5S,6R)-3,4,5-trihydroxy-6-(hydroxymethyl)tetrahydropyran-2-yl]ethynyl]spiro[fluorene-9,4piperidine]-1yl]-cyclobutyl-methanone] | 0.06
8 | OC[C@H]1O[C@H](c2ccc(-c3cccc(-c4ccc([C@H]5O[C@H](CO)[C@@H](O)[C@H](O)[C@@H]5O)cc4)c3)cc2)[C@@H](O)[C@@H](O)[C@@H]1O [Compound 66] | 34
9 | OC[C@H]1O[C@H](C#Cc2ccc(C#C[C@H]3O[C@H](CO)[C@@H](O)[C@H](O)[C@@H]3O)c3ccccc23)[C@@H](O)[C@@H](O)[C@@H]1O [Compound 136, (2R,3S,4R,5S,6R)-2-(hydroxymethyl)-6-[2-[4-[2-[(2R,3S,4R,5S,6R)-3,4,5-trihydroxy-6-(hydroxymethyl)tetrahydropyran-2-yl]ethynyl]-1-naphthyl]ethynyl]tetrahydropyran-3,4,5-triol] | 145
10 | OC[C@H]1O[C@H](C#Cc2ccc3c(c2)C(F)(F)c2cc(C#C[C@H]4O[C@H](CO)[C@@H](O)[C@H](O)[C@@H]4O)ccc2-3)[C@@H](O)[C@@H](O)[C@@H]1O [Compound 116, (2R,3S,4R,5S,6R)-2-[2-[9,9-difluoro-7-[2-[(2R,3S,4R,5S,6R)-3,4,5-trihydroxy-6-(hydroxymethyl)tetrahydropyran-2-yl]ethynyl]fluoren-2-yl]ethynyl]-6-(hydroxymethyl)tetrahydropyran-3,4,5-triol] | 8.1
11 | OC[C@H]1O[C@H](C#Cc2ccc3c(c2)C(O)(CC2CCCCC2)c2cc(C#C[C@H]4O[C@H](CO)[C@@H](O)[C@H](O)[C@@H]4O)ccc2-3)[C@@H](O)[C@@H](O)[C@@H]1O (stereo partly drawn) [Compound 215, (2R,3S,4R,5S,6R)-2-[2-[9-(cyclohexylmethyl)-9-hydroxy-7-[2-[(2R,3S,4R,5S,6R)-3,4,5-trihydroxy-6-(hydroxymethyl)tetrahydropyran-2-yl]ethynyl]fluoren-2-yl]ethynyl]-6-(hydroxymethyl)tetrahydropyran-3,4,5-triol] | 5
12 | OC[C@H]1O[C@H](C#Cc2cc(F)c(C#C[C@H]3O[C@H](CO)[C@@H](O)[C@H](O)[C@@H]3O)c(F)c2)[C@@H](O)[C@@H](O)[C@@H]1O [Compound 93, (2R,3S,4R,5S,6R)-2-[2-[3,5-difluoro-4-[2-[(2R,3S,4R,5S,6R)-3,4,5-trihydroxy-6-(hydroxymethyl)tetrahydropyran-2-yl]ethynyl]phenyl]ethynyl]-6-(hydroxymethyl)tetrahydropyran-3,4,5-triol] | 88
13 | OC[C@H]1O[C@H](C#Cc2cc(C#C[C@H]3O[C@H](CO)[C@@H](O)[C@H](O)[C@@H]3O)c3[nH]ncc3c2)[C@@H](O)[C@@H](O)[C@@H]1O [Compound 212, (2R,3S,4R,5S,6R)-2-(hydroxymethyl)-6-[2-[7-[2-[(2R,3S,4R,5S,6R)-3,4,5-trihydroxy-6-(hydroxymethyl)tetrahydropyran-2-yl]ethynyl]-1H-indazol-5-yl]ethynyl]tetrahydropyran-3,4,5-triol] | 4.9
14 | CC(=O)OCC1(COC(C)=O)c2cc(C#C[C@H]3O[C@H](CO)[C@@H](O)[C@H](O)[C@@H]3O)ccc2-c2ccc(C#C[C@H]3O[C@H](CO)[C@@H](O)[C@H](O)[C@@H]3O)cc21 [Compound 211, [9-(acetoxymethyl)-2,7-bis[2-[(2R,3S,4R,5S,6R)-3,4,5-trihydroxy-6-(hydroxymethyl)tetrahydropyran-2-yl]ethynyl]fluoren-9-yl]methyl acetate] | 2.2
15 | Cc1cc(-c2ccc(-c3ccc([C@H]4O[C@H](CO)[C@@H](O)[C@H](O)[C@@H]4O)c(C)c3)nc2)ccc1[C@H]1O[C@H](CO)[C@@H](O)[C@H](O)[C@@H]1O [Compound 157, (2R,3S,4R,5S,6R)-2-(hydroxymethyl)-6-[2-methyl-4-[6-[3-methyl-4-[(2R,3S,4R,5S,6R)-3,4,5-trihydroxy-6-(hydroxymethyl)tetrahydropyran-2-yl]phenyl]-3-pyridyl]phenyl]tetrahydropyran-3,4,5-triol] | 10
16 | Cc1c(C)c(C#C[C@H]2O[C@H](CO)[C@@H](O)[C@H](O)[C@@H]2O)c(C)c(C)c1C#C[C@H]1O[C@H](CO)[C@@H](O)[C@H](O)[C@@H]1O [Compound 84, (2R,3S,4R,5S,6R)-2-(hydroxymethyl)-6-[2-[2,3,5,6-tetramethy1-4-[2-[(2R,3S,4R,5S,6R)-3,4,5-trihydroxy-6-(hydroxymethyl)tetrahydropyran-2-yl]ethynyl]phenyl]ethynyl]tetrahydropyran-3,4,5-triol] | 315
